“And” between values parts separate entries of the source, which are not always exact repeats. Equal entries are not always repeated.
Experiments:
HDAC2 [1] = biological target: T1, HDAC2 (Homo sapiens, UniProt Q92769); test: 100-fold jump-dilution experiments; conditions: 1 h incubation at 10-fold IC50, then 1:100 dilution
Experimental: The assay was performed according to a previously published protocol with minor modifications. […] Subsequently, this “incubation mix” was diluted 1:100, and the dissociation of test compounds was monitored continuously.
The enzymes were preincubated with the inhibitor for 1 h before 1:100 dilution. […] The assay was performed in triplicates and repeated at least twice.
Afterward, the “incubation mix” was diluted 100-fold either with assay buffer or the respective inhibitor solution at its original concentration. […] Compounds were tested in triplicates in at least two independent experiments.

HDAC1 = HDAC1 (Homo sapiens, UniProt Q13547); test: Fluorescence-based biochemical HDAC enzyme inhibition assay (ZMAL substrate); conditions: HDAC1 IC50, preincubation of enzyme and inhibitor 1 h at RT; no irradiation
Experimental: (§1) First, the inhibitory activity and isoform selectivity of compounds and controls (see Figure ) was evaluated in a fluorescence-based biochemical HDAC inhibition assay against recombinant HDAC1, HDAC2, HDAC3, and HDAC6. […] First, 3-fold serial dilutions of test compounds were prepared in DMSO. […] IC50 values were determined by generating normalized dose–response curves using the three-parameter logistic equation (GraphPad Prism 8.0, San Diego, USA).

HDAC2 [2] = biological target: T1, HDAC2; test: as above; conditions: HDAC2 IC50, preincubation of enzyme and inhibitor 1 h at RT; no irradiation
Experimental: as §1

human recombinant HDAC3 = human recombinant HDAC3 (Homo sapiens, UniProt O15379); test: as above; conditions: HDAC3 IC50, preincubation of enzyme and inhibitor 1 h at RT; no irradiation
Experimental: as §1

human recombinant HDAC6 = biological target: T2, human recombinant HDAC6 (Homo sapiens, UniProt Q9UBN7); test: as above
T2 sequence (Q9UBN7 1-1215): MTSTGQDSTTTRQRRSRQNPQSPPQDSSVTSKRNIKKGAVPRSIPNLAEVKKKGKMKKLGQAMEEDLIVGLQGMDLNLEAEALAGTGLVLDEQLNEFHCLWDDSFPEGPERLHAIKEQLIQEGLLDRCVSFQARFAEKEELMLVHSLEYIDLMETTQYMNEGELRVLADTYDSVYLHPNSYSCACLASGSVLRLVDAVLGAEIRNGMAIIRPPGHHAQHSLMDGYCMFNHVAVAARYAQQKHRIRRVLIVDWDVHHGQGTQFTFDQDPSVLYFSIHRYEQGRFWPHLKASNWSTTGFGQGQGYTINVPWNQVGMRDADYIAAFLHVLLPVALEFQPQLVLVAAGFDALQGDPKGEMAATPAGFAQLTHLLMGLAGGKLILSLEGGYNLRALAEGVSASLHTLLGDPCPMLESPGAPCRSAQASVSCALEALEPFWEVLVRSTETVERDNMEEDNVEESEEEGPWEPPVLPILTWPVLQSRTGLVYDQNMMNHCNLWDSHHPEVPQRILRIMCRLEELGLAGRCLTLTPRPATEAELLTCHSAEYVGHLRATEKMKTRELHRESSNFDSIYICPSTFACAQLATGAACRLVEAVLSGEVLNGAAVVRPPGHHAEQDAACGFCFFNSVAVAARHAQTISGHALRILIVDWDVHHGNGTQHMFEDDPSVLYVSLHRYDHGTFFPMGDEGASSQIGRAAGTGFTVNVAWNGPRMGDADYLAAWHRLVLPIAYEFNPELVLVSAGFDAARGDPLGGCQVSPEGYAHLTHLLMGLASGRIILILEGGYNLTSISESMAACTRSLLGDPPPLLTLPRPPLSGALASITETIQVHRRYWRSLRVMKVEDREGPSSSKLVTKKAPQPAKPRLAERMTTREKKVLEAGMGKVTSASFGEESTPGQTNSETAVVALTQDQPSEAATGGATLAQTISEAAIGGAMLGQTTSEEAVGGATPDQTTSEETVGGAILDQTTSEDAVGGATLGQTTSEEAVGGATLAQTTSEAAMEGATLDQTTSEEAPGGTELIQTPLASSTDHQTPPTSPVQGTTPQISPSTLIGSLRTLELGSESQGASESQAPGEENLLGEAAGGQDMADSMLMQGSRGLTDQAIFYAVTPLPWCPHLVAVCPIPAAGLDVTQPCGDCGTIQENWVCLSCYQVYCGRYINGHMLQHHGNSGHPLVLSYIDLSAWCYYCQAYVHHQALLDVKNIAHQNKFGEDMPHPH
Experimental: as §1

HDAC4–8 = system: HDAC4–8; set-up: method as in number not given; conditions: literature value for Cpd-60; ref number not given; cited from earlier work

Sequence of human recombinant HDAC3 (O15379 whole entry): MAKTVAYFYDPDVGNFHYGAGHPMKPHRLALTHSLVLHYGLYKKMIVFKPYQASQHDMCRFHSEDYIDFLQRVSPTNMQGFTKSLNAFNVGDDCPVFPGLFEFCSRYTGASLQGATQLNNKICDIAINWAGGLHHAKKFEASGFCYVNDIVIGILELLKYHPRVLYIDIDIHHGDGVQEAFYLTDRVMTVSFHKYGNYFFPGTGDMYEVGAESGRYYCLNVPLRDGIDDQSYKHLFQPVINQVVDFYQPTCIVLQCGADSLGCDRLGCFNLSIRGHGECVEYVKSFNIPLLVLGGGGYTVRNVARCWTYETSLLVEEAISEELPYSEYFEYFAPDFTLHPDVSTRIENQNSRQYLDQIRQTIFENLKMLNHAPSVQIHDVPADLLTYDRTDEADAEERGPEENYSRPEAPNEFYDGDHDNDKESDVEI
Sequence of human recombinant HDAC3 (Q9Y618 395-489 partner limits assumed): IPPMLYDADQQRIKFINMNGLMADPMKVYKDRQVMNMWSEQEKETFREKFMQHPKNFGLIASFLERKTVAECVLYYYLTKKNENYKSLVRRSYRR
T1 sequence (Q92769 whole entry): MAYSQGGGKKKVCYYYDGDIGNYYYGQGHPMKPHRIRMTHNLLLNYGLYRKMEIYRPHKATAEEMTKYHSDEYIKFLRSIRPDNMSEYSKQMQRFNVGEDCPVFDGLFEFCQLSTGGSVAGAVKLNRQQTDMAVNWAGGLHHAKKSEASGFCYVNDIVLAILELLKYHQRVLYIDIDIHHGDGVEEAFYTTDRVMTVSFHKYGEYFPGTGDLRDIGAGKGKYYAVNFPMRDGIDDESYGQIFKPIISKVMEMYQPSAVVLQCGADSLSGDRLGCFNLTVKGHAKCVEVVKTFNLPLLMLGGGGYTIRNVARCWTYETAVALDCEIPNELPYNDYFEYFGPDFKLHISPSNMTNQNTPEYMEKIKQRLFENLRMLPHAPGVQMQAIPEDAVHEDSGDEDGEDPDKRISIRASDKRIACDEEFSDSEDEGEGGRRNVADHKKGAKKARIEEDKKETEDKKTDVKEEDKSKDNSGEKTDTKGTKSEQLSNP
Sequence of HDAC1 (Q13547 whole entry): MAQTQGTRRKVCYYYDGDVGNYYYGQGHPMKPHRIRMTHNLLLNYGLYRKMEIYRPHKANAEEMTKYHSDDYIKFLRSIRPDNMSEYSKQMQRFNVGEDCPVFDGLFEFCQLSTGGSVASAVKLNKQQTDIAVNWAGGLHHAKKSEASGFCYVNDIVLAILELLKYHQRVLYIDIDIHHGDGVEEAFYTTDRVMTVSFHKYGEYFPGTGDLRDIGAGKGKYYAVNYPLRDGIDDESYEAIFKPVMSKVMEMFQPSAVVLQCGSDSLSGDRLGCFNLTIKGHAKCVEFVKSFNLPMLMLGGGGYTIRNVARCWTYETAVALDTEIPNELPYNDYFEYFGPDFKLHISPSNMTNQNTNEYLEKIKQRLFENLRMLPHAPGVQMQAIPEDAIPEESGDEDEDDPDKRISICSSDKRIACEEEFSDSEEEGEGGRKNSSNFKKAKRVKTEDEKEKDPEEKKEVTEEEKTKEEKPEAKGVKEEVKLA

With `CC(=O)Nc1ccc(C(=O)Nc2cc(-c3ccccc3)ccc2O)cc1` [ST13, 4-Acetamido-N-(4-hydroxy-[1,1′-biphenyl]-3-yl)-benzamide] the “dissociation behavior from HDAC2 upon 100-fold dilution” value (HDAC2 [1]) was “tight-binding properties”, the IC50 (HDAC1) was 0.023 ± 0.004 µM and the IC50 (HDAC2 [2]) was 0.049 ± 0.003 µM. For the same molecule, the IC50 (human recombinant HDAC3) was 4.3 µM and 6.64 µM and the IC50 (human recombinant HDAC6) was greater than 10 µM.

For `CC(=O)Nc1ccc(C(=O)Nc2cc(-c3cccs3)ccc2N)cc1` [Cpd-60, reference compound], the IC50 (HDAC4–8) is given as greater than 10 µM.

— article PMC12706802, “Ortho-Hydroxyanilides: Slow-Acting, Selective Histone Deacetylase 1/2 Inhibitors Suitable for Photocaging Applications” (ACS Pharmacology & Translational Science, 2025)
